1 compound from PMC3206302 (The Journal of General Physiology, 2011) can be followed below.

In this experiment the target is T1, TRPV3 (Mus musculus, UniProt Q8K424).
T1 sequence (Q8K424 1-791): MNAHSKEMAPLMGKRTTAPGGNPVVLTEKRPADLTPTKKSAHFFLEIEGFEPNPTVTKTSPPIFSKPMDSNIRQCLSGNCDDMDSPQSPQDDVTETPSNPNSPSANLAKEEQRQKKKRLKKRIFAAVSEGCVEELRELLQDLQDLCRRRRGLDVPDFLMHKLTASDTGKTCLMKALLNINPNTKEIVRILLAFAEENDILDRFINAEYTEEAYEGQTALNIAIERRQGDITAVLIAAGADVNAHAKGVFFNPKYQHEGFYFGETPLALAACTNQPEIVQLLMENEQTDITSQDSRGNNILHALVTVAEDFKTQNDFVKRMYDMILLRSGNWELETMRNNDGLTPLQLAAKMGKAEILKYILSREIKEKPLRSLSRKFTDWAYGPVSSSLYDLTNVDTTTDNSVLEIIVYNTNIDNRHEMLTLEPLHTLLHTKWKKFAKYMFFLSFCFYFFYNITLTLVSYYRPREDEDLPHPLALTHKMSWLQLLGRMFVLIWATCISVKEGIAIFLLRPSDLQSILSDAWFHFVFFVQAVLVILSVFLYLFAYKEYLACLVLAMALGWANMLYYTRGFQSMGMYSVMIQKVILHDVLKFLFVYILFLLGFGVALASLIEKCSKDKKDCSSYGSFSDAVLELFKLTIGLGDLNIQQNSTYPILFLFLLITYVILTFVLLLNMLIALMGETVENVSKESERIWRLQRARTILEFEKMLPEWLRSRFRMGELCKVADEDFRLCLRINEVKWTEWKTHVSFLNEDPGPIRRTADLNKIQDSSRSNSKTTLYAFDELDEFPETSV
The experiment is described as follows: patch-clamp, reversible potentiation of 2-APB response in inside-out patches. In kind it is cell-based. (The patch-clamp technique gives a direct electrical read-out from membranes.)

As to `CC(C)=C[C@H]1C[C@H](C)[C@]2(CC[C@]3(C)C[C@H]4[C@H](C(=O)C[C@@]4(C)O)/C(C=O)=C\C[C@H]32)O1` [ophiobolin A], the “patch-clamp, reversible potentiation of 2-APB response in inside-out patches” value was “some CaM inhibitors such as ophiobolin A and W-7 may directly interfere with the gating of TRPV3”.
